Tested on: HBV DNA in HepG2.2.15 cells
Assay: HBV in vitro assay quantitive qPCR test
Assay type: cell-based
Conditions: Hepatitis B virus; qPCR assay, HepG2.2.15 cells; read-out: Concentration for 50% inhibition of HBV (EC50)value
Procedure: • 1 Purpose of the test: • The content of HBV DNA in HepG2.2.15 cells was detected by real time quantitive qPCR test to evaluate an inhibitory action of the compound on HBV with an EC50 value of the compound as an indicator. • 2 Experimental materials: • 2.1 Cell lines: HepG2.2.15 Cells • HepG2.2.15 cell culture media (DMEM/F12, Invitrogen-11330057; 10% serum, Invitrogen-10099141; 100 units/ml Penicillin and 10 μg/ml Streptomycin, Invitrogen-15140122; 1% non-essential amino acid, Invitrogen-1140076; 2 mM L-GLUTAMINE, Invitrogen-25030081; 300 μg/ml Geneticin, Invitrogen-10131027 • 2.2 Reagents: • trypsin (Invitrogen-25300062) • DPBS (Hyclone-SH30028.01B) • DMSO (Sigma-D2650-100ML) • High-Throughput DNA Purification Kit (QIAamp 96 DNA Blood Kit, Qiagen-51162) • Quantitative Fast Start Universal Probe Reagent (FastStart Universal Probe Master, Roche-04914058001) • 2.3 Materials and Instruments: • 96-well cell culture plate (Corning-3599) • CO2 Incubator (HERA-CELL-240) • Optical Sealing Membrane (ABI-4311971) • Quantitative PCR 96-well Plate (Applied Biosystems-4306737) • Fluorescent Quantitative PCR Instrument (Applied Biosystems-7500 real time PCR system) • 3. Testing steps and Methods: • 3.1 HepG2.2.15 cells (4×10^4 cells/well) were planted into a 96-well plate, and at 37° C., 5% CO2 cultured overnight. • 3.2 On Day 2, the compounds were diluted in totally 8 concentrations with a dilution gradient of three times. The compounds at different concentrations were added into the culture wells in duplicate. The final concentration of DMSO in the culture media was 1%. 1 μM GLS4 was used as 100% inhibition control; 1% DMSO as 0% inhibition control. • 3.3 On Day 5, replacing with the fresh culture media containing the compound was performed. • 3.4 On Day 8, the culture media in the culture wells was collected, and DNA was extracted with a High-Throughput DNA Purification Kit (Qiagen-51162), See Specification of the product for specific steps. • 3.5 Preparation of PCR Reaction Mixture was shown in Table 1:
• 3.6 To each well of a 96-well PCR plate was added 15 μl reaction mixture, and then to each well was added 10 μl sample DNA or HBV DNA standard. • 3.7 The reaction conditions of PCR were: heating at 95° C. for 10 minutes; then at 95° C. denaturing for 15 seconds, and at 60° C. extending for 1 minute, totally 40 cycles. • 3.8 Data Analysis: • 3.8.1 The inhibition percentage was calculated: % Inh.=[1−(DNA copy number in sample−DNA copy number in 1 μM GLS4)/(DNA copy number in DMSO control−DNA copy number in 1 μM GLS4)]×100. • 3.8.2 Calculating EC50: the concentration of the compound for 50% inhibition of HBV (EC50) was calculated by using GraphPad Prism Software. • 4 Testing Results • The testing results were shown in Table 3: […]

Row | SMILES | EC50 [nM]
1 | COC(=O)C1=C2C[C@H](NS(N)(=O)=O)CN2C(c2nccs2)=N[C@H]1c1ccc(F)c(F)c1Cl [Example 198] | < 100
2 | COC(=O)C1=C2C[C@H](NS(=O)(=O)c3cccnc3)CN2C(c2nccs2)=N[C@H]1c1ccc(F)cc1Cl [Example 199] | < 100
3 | COC(=O)C1=C2C[C@H](NS(=O)(=O)c3ccccn3)CN2C(c2nccs2)=N[C@H]1c1ccc(F)cc1Cl [Example 200] | < 100
4 | COC(=O)C1=C2C[C@H](NS(C)(=O)=O)CN2C(c2nccs2)=N[C@H]1c1ccc(F)c(F)c1Cl [Example 201] | < 100
5 | COC(=O)C1=C2C[C@H](NS(C)(=O)=O)CN2C(c2ncc(C)s2)=N[C@H]1c1ccc(F)cc1Cl [Example 202] | 100 to 500
6 | COC(=O)C1=C2C[C@H](NS(C)(=O)=O)CN2C(c2nccs2)=N[C@H]1c1ccc(F)cc1C(F)(F)F [Example 203] | 100 to 500
7 | COC(=O)C1=C2C[C@H](NS(=O)(=O)c3ccccc3F)CN2C(c2nccs2)=N[C@H]1c1ccc(F)cc1Cl [Example 204] | < 100
8 | COC(=O)C1=C2C[C@H](NS(C)(=O)=O)CN2C(c2nccs2)=N[C@H]1c1ccc(F)cc1F [Example 205] | < 100
9 | CNS(=O)(=O)N[C@H]1CC2=C(C(=O)OC)[C@H](c3ccc(F)c(F)c3F)N=C(c3nccs3)N2C1 [Example 206] | < 100
10 | COC(=O)C1=C2C[C@H](NS(=O)(=O)N(C)C)CN2C(c2nccs2)=N[C@H]1c1ccc(F)c(F)c1F [Example 207] | < 100
11 | COC(=O)C1=C2C[C@H](NS(=O)(=O)N3CCCC3)CN2C(c2nccs2)=N[C@H]1c1ccc(F)c(F)c1F [Example 208] | < 100
12 | COC(=O)C1=C2C[C@H](NS(=O)(=O)NC(C)C)CN2C(c2nccs2)=N[C@H]1c1ccc(F)c(F)c1F [Example 209] | < 100
13 | COC(=O)C1=C2C[C@H](NS(=O)(=O)NC(C)(C)C)CN2C(c2nccs2)=N[C@H]1c1ccc(F)c(F)c1F [Example 210] | < 100
14 | COC(=O)C1=C2C[C@H](NS(=O)(=O)N3CCC3)CN2C(c2nccs2)=N[C@H]1c1ccc(F)c(F)c1F [Example 212] | 100 to 500
15 | CCS(=O)(=O)N[C@H]1CC2=C(C(=O)OC)[C@H](c3cccc(F)c3Cl)N=C(c3nccs3)N2C1 [Example 213] | < 100
16 | CCCCNS(=O)(=O)N[C@H]1CC2=C(C(=O)OC)[C@H](c3ccc(F)c(F)c3F)N=C(c3nccs3)N2C1 [Example 214] | < 100
17 | COC(=O)C1=C2C[C@H](NS(=O)(=O)N(C)C)CN2C(c2nccs2)=N[C@H]1c1cccc(F)c1Cl [Example 215] | < 100
18 | COC(=O)C1=C2C[C@H](NS(=O)(=O)NC(C)C)CN2C(c2nccs2)=N[C@H]1c1cccc(F)c1Cl [Example 216] | < 100
19 | COC(=O)C1=C2C[C@H](NC(=O)OC(C)(C)C)CN2C(c2nccs2)=N[C@H]1c1cccc(F)c1Cl [Example 217] | < 100
20 | COC(=O)C1=C2C[C@H](NS(N)(=O)=O)CN2C(c2nccs2)=N[C@H]1c1cccc(F)c1Cl [Example 218] | < 100
21 | COC(=O)C1=C2C[C@H](NS(N)(=O)=O)CN2C(c2ncc(F)cc2F)=N[C@H]1c1ccc(F)c(F)c1F [Example 219] | 100 to 500
22 | COC(=O)C1=C2C[C@H](NS(N)(=O)=O)CN2C(c2nccs2)=N[C@H]1c1cccc(F)c1F [Example 220] | < 100

Same assay, conditions: Hepatitis B virus; summary list of target compounds, Examples 166-220 (values of Table 3); HepG2.2.15 cells; read-out: BIOACTIVITY (inhibitory actions on HBV DNA, EC50)

Row | SMILES | EC50 [nM]
23 | COC(=O)C1=C2C[C@H](NS(N)(=O)=O)CN2C(c2nccs2)=N[C@H]1c1ccc(F)c(F)c1Cl [Example 198] | < 100
24 | COC(=O)C1=C2C[C@H](NS(=O)(=O)c3cccnc3)CN2C(c2nccs2)=N[C@H]1c1ccc(F)cc1Cl [Example 199] | < 100
25 | COC(=O)C1=C2C[C@H](NS(=O)(=O)c3ccccn3)CN2C(c2nccs2)=N[C@H]1c1ccc(F)cc1Cl [Example 200] | < 100
26 | COC(=O)C1=C2C[C@H](NS(C)(=O)=O)CN2C(c2nccs2)=N[C@H]1c1ccc(F)c(F)c1Cl [Example 201] | < 100
27 | COC(=O)C1=C2C[C@H](NS(C)(=O)=O)CN2C(c2ncc(C)s2)=N[C@H]1c1ccc(F)cc1Cl [Example 202] | 100 to 500
28 | COC(=O)C1=C2C[C@H](NS(C)(=O)=O)CN2C(c2nccs2)=N[C@H]1c1ccc(F)cc1C(F)(F)F [Example 203] | 100 to 500
29 | COC(=O)C1=C2C[C@H](NS(=O)(=O)c3ccccc3F)CN2C(c2nccs2)=N[C@H]1c1ccc(F)cc1Cl [Example 204] | < 100
30 | COC(=O)C1=C2C[C@H](NS(C)(=O)=O)CN2C(c2nccs2)=N[C@H]1c1ccc(F)cc1F [Example 205] | < 100
31 | CNS(=O)(=O)N[C@H]1CC2=C(C(=O)OC)[C@H](c3ccc(F)c(F)c3F)N=C(c3nccs3)N2C1 [Example 206] | < 100
32 | COC(=O)C1=C2C[C@H](NS(=O)(=O)N(C)C)CN2C(c2nccs2)=N[C@H]1c1ccc(F)c(F)c1F [Example 207] | < 100
33 | COC(=O)C1=C2C[C@H](NS(=O)(=O)N3CCCC3)CN2C(c2nccs2)=N[C@H]1c1ccc(F)c(F)c1F [Example 208] | < 100
34 | COC(=O)C1=C2C[C@H](NS(=O)(=O)NC(C)C)CN2C(c2nccs2)=N[C@H]1c1ccc(F)c(F)c1F [Example 209] | < 100
35 | COC(=O)C1=C2C[C@H](NS(=O)(=O)NC(C)(C)C)CN2C(c2nccs2)=N[C@H]1c1ccc(F)c(F)c1F [Example 210] | < 100
36 | COC(=O)C1=C2C[C@H](NS(=O)(=O)N3CCC3)CN2C(c2nccs2)=N[C@H]1c1ccc(F)c(F)c1F [Example 212] | 100 to 500
37 | CCS(=O)(=O)N[C@H]1CC2=C(C(=O)OC)[C@H](c3cccc(F)c3Cl)N=C(c3nccs3)N2C1 [Example 213] | < 100
38 | CCCCNS(=O)(=O)N[C@H]1CC2=C(C(=O)OC)[C@H](c3ccc(F)c(F)c3F)N=C(c3nccs3)N2C1 [Example 214] | < 100
39 | COC(=O)C1=C2C[C@H](NS(=O)(=O)N(C)C)CN2C(c2nccs2)=N[C@H]1c1cccc(F)c1Cl [Example 215] | < 100
40 | COC(=O)C1=C2C[C@H](NS(=O)(=O)NC(C)C)CN2C(c2nccs2)=N[C@H]1c1cccc(F)c1Cl [Example 216] | < 100
41 | COC(=O)C1=C2C[C@H](NC(=O)OC(C)(C)C)CN2C(c2nccs2)=N[C@H]1c1cccc(F)c1Cl [Example 217] | 1000 to 5000
42 | COC(=O)C1=C2C[C@H](NS(N)(=O)=O)CN2C(c2nccs2)=N[C@H]1c1cccc(F)c1Cl [Example 218] | < 100
43 | COC(=O)C1=C2C[C@H](NS(N)(=O)=O)CN2C(c2ncc(F)cc2F)=N[C@H]1c1ccc(F)c(F)c1F [Example 219] | 100 to 500
44 | COC(=O)C1=C2C[C@H](NS(N)(=O)=O)CN2C(c2nccs2)=N[C@H]1c1cccc(F)c1F [Example 220] | < 100

— US9938301B2, “Dihydropyrimido fused ring derivative as HBV inhibitor” (QILU PHARMACEUTICAL CO., LTD., priority 2014, dated 2018)
